Reference: patent US20050227337A1, “Method for producing ascorbic acid intermediates” (priority 1998, published 2005)

Key:
[1] = test system: reductase and glucose dehydrogenase (GDH); experiment: NADPH/NADP+ ratio in cofactor recycling reaction (absorbance at 340 nm); format: biochemical; conditions: final concentration 0.5 M NaCl; room temperature, pH 7
Description: Therefore, if the two cofactors are mixed together, the amount of NADPH present can be determined by the absorbance at 340 nm. If the amount of NADP+ originally added is also known, the ratio of the two cofactors can then be easily determined. This method can be used to measure how the addition of various components to a reaction, such as a cofactor recycling reaction, affects the reaction equilibrium.
A 1 ml reaction was set up in a cuvette at room temperature. The reaction consisted of buffer (50 mM bis-tris, pH 7), 5 mg glucose, 5 mg 2,5-DKG, 100 uM NADPH, 100 uM NADP+, reductase and glucose dehydrogenase (GDH). The enzymes were added last to initiate the reaction, and the cofactor levels were monitored at 340 nm. After equilibrium was reached (FIG. 7), an additional aliquot of GDH was added. Very quickly the equilibrium shifted to favor more NADPH being present. Addition of more GDH gave the same response.
Another 1 ml incubation was set up as above. After it reached equilibrium, 29 mg of NaCl was added to it to give a final concentration of 0.5 M NaCl.

[2] = test system: D-gluconic acid dehydrogenase; experiment: D-gluconic acid dehydrogenase activity in permeabilized cells with methanol (product formation, HPLC); format: biochemical, P. citrea; conditions: permeabilized cells with 15% MeOH and gluconic acid
Description: (§1) 400 ml of P. citrea cells having a mutation in the naturally occurring membrane bound GDH was grown to 80 OD (600 nm) in 10 g/L gluconate, and mixed with 16 ml of a mixture of 10% toluene and 90% acetone for 3 minutes at 22 C. The permeabilized cells were then centrifuged for 10 minutes at 9000 rpm, and the resulting cell pellet was washed with 400 ml of 50 mM tris, pH 7. The washings were repeated twice more to ensure removal of residual organic solvent.
(§2) Permeabilized cells were incubated with 15% MeOH and gluconic acid.

[3] = test system: 2-keto-D-gluconic acid dehydrogenase; experiment: 2-keto-D-gluconic acid dehydrogenase activity in permeabilized cells with methanol (product formation, HPLC); format: biochemical, P. citrea; conditions: permeabilized cells with 15% MeOH and gluconic acid
Description: as §1, §2

GDH from T. acidophilum = target: T1, GDH from T. acidophilum (Thermoplasma acidophilum, UniProt P13203); experiment: GDH activity in the presence of methanol; format: biochemical; conditions: incubated with 10% methanol; 50 mM Tris, pH 7
T1 construct: purchased Sigma
T1 sequence (P13203 1-361): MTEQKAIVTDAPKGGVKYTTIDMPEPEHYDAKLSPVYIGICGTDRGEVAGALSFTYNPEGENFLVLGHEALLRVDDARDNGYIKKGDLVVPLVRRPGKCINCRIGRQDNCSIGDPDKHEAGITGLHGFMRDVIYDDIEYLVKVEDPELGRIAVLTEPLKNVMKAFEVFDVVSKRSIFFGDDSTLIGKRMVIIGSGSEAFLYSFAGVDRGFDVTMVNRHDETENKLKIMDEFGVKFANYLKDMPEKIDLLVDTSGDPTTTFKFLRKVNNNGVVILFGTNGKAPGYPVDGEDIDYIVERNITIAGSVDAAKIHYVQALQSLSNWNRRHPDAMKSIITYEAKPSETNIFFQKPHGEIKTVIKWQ

[4] = test system: 2-keto-D-gluconate dehydrogenase; conditions: reported by Shinagawa and Ameyama (1982); cited from earlier work

[Cl-].[Na+] [NaCl, sodium chloride]
shift of NADPH/NADP+ equilibrium [1]: dramatically shifted the equilibrium to favor the presence of NADPH

CO [methanol]
activity of D-gluconic acid dehydrogenase [2]: not significantly affected
activity of 2-keto-D-gluconic acid dehydrogenase [3]: not significantly affected
GDH activity (GDH from T. acidophilum): small decrease in activity

O=C(O)CC(O)(CC(=O)O)C(=O)O [citrate]
effect on 2-keto-D-gluconate dehydrogenase [4]: inhibit

O=C(O)CCC(=O)O [succinate]
effect on 2-keto-D-gluconate dehydrogenase [4]: inhibit
